Measured values as given in ChEMBL document CHEMBL4765407, “Design, synthesis and high antitumor potential of new unsymmetrical bisacridine derivatives towards human solid tumors, specifically pancreatic cancers and their unique ability to stabilize DNA G-quadruplexes” (Eur J Med Chem, 2020).

Legend:
NCI-H460 = experiment: Cytotoxicity against human NCI-H460 cells assessed as reduction in cell viability measured after 72 hrs by SRB assay; assay type: functional, cell-based; conditions: NCI-H460, 72 h
MIA PaCa-2 [1] = experiment: Antitumour activity against human MIA PaCa-2 cells xenografted in Crl:Nu-Foxnl nu mouse assessed as inhibition of tumour growth at total effective dose of 8 mg/kg, ip measured on day 15; assay type: functional; conditions: MIA PaCa-2, ip, 360 h, time 15 day, read-out: TGI
PANC-1 [2] = experiment: Cytotoxicity against human PANC-1 cells assessed as reduction in cell viability measured after 72 hrs by SRB assay; assay type: functional, cell-based; conditions: PANC-1, 72 h
Quadruplex DNA [3] = experiment: Stabilization of 5'-FAM/3'-TAMRA labeled telomeric G4 quadruplex DNA F21T (unknown origin) assessed as change in melting temperature at 10 microM measured after 15 mins by FRET assay; assay type: nucleic-acid assay
[4] = Stabilization of ds 5'-FAM-d(TATAGCTATA-HEG-TATAGCTATA)-TAMRA-3' (unknown origin) assessed as change in melting temperature at 10 microM measured after 15 mins by FRET assay; conditions: Homo sapiens
DU-145 = experiment: Cytotoxicity against human DU-145 cells assessed as reduction in cell viability measured after 72 hrs by SRB assay; assay type: functional, cell-based; conditions: DU-145, 72 h
Quadruplex DNA [5] = experiment: Stabilization of 5'-FAM/3'-TAMRA labeled c-Myc promoter G4 quadruplex DNA FPu18 (unknown origin) assessed as change in melting temperature at 10 microM measured after 15 mins by FRET assay; assay type: nucleic-acid assay
MIA PaCa-2 [6] = experiment: Antitumour activity against human MIA PaCa-2 cells xenografted in Crl:Nu-Foxnl nu mouse assessed as inhibition of tumour growth at total effective dose of 16 mg/kg, iv measured on day 26; assay type: functional; conditions: MIA PaCa-2, iv, 624 h, time 26 day, read-out: TGI
PANC-1 [7] = experiment: Antitumour activity against human PANC-1 cells xenografted in Crl:Nu-Foxnl nu mouse assessed as inhibition of tumour growth at total effective dose of 36 mg/kg, iv measured on day 45; assay type: functional; conditions: PANC-1, iv, 1080 h, time 45 day, read-out: TGI
Capan-2 = experiment: Cytotoxicity against human Capan-2 cells assessed as reduction in cell viability measured after 72 hrs by SRB assay; assay type: functional, cell-based; conditions: Capan-2, 72 h
BXPC-3 [8] = experiment: Antitumour activity against human BXPC-3 cells xenografted in Crl:Nu-Foxnl nu mouse assessed as inhibition of tumour growth at total effective dose of 30 mg/kg, iv measured on day 37; assay type: functional; conditions: BXPC-3, iv, 888 h, time 37 day, read-out: TGI
MIA PaCa-2 [9] = experiment: Cytotoxicity against human MIA PaCa-2 cells assessed as reduction in cell viability measured after 72 hrs by SRB assay; assay type: functional, cell-based; conditions: MIA PaCa-2, 72 h
HCT-116 = experiment: Cytotoxicity against human HCT-116 cells assessed as reduction in cell viability measured after 72 hrs by SRB assay; assay type: functional, cell-based; conditions: HCT-116, 72 h
MIA PaCa-2 [10] = experiment: Antitumour activity against human MIA PaCa-2 cells xenografted in Crl:Nu-Foxnl nu mouse assessed as inhibition of tumour growth at total effective dose of 42 mg/kg, iv measured on day 26; assay type: functional; conditions: MIA PaCa-2, iv, 624 h, time 26 day, read-out: TGI
BXPC-3 [11] = experiment: Cytotoxicity against human BXPC-3 cells assessed as reduction in cell viability measured after 72 hrs by SRB assay; assay type: functional, cell-based; conditions: BXPC-3, 72 h
ASPC1 [12] = experiment: Cytotoxicity against human ASPC1 cells assessed as reduction in cell viability measured after 72 hrs by SRB assay; assay type: functional, cell-based; conditions: ASPC1, 72 h
PANC-1 [13] = experiment: Antitumour activity against human PANC-1 cells xenografted in Crl:Nu-Foxnl nu mouse assessed as inhibition of tumour growth at total effective dose of 16 mg/kg, iv measured on day 40; assay type: functional; conditions: PANC-1, iv, 960 h, time 40 day, read-out: TGI
MDA-MB-231 [14] = experiment: Cytotoxicity against human MDA-MB-231 cells assessed as reduction in cell viability measured after 72 hrs by SRB assay; assay type: functional, cell-based; conditions: MDA-MB-231, 72 h
UMUC3 [15] = experiment: Antitumour activity against human UMUC3 cells xenografted in Crl:Nu-Foxnl nu mouse assessed as inhibition of tumour growth at total effective dose of 28 mg/kg, iv measured on day 23; assay type: functional; conditions: 552 h, time 23 day, read-out: TGI
PANC-1 [16] = experiment: Antitumour activity against human PANC-1 cells xenografted in Crl:Nu-Foxnl nu mouse assessed as inhibition of tumour growth at total effective dose of 20 mg/kg, iv measured on day 36; assay type: functional; conditions: PANC-1, iv, 864 h, time 36 day, read-out: TGI
MCF7 = experiment: Cytotoxicity against human MCF7 cells assessed as reduction in cell viability measured after 72 hrs by SRB assay; assay type: functional, cell-based; conditions: MCF7, 72 h
HT-29 = experiment: Cytotoxicity against human HT-29 cells assessed as reduction in cell viability measured after 72 hrs by SRB assay; assay type: functional, cell-based; conditions: HT-29, 72 h
UMUC3 [17] = experiment: Cytotoxicity against human UMUC3 cells assessed as reduction in cell viability measured after 72 hrs by SRB assay; assay type: functional, cell-based; conditions: UMUC3, 72 h
PANC-1 [18] = experiment: Antitumour activity against human PANC-1 cells xenografted in Crl:Nu-Foxnl nu mouse assessed as inhibition of tumour growth at total effective dose of 10 mg/kg, iv measured on day 31; assay type: functional; conditions: PANC-1, iv, 744 h, time 31 day, read-out: TGI
Quadruplex DNA [19] = experiment: Stabilization of 5'-FAM/3'-TAMRA labeled K-Ras G4 quadruplex DNA (unknown origin) assessed as change in melting temperature at 10 microM measured after 15 mins by FRET assay; assay type: nucleic-acid assay
PC-3 = experiment: Cytotoxicity against human PC-3 cells assessed as reduction in cell viability measured after 72 hrs by SRB assay; assay type: functional, cell-based; conditions: PC-3, 72 h
PANC-1 [20] = experiment: Antitumour activity against human PANC-1 cells xenografted in Crl:Nu-Foxnl nu mouse assessed as inhibition of tumour growth at total effective dose of 8 mg/kg, iv measured on day 32; assay type: functional; conditions: PANC-1, iv, 768 h, time 32 day, read-out: TGI
PANC-1 [21] = experiment: Antitumour activity against human PANC-1 cells xenografted in Crl:Nu-Foxnl nu mouse assessed as inhibition of tumour growth at total effective dose of 16 mg/kg, iv measured on day 47; assay type: functional; conditions: PANC-1, iv, 1128 h, time 47 day, read-out: TGI
BXPC-3 [22] = experiment: Antitumour activity against human BXPC-3 cells xenografted in Crl:Nu-Foxnl nu mouse assessed as inhibition of tumour growth at total effective dose of 40 mg/kg, iv measured on day 34; assay type: functional; conditions: BXPC-3, iv, 816 h, time 34 day, read-out: TGI
ASPC1 [23] = experiment: Antitumour activity against human ASPC1 cells xenografted in Crl:Nu-Foxnl nu mouse assessed as inhibition of tumour growth at total effective dose of 48 mg/kg, iv measured on day 36; assay type: functional; conditions: 864 h, time 36 day, read-out: TGI
PANC-1 [24] = experiment: Antitumour activity against human PANC-1 cells xenografted in Crl:Nu-Foxnl nu mouse assessed as inhibition of tumour growth at total effective dose of 160 mg/kg, iv measured on day 50; assay type: functional; conditions: PANC-1, iv, 1200 h, time 50 day, read-out: TGI
PANC-1 [25] = experiment: Antitumour activity against human PANC-1 cells xenografted in Crl:Nu-Foxnl nu mouse assessed as inhibition of tumour growth at total effective dose of 8 mg/kg, iv measured on day 52; assay type: functional; conditions: PANC-1, iv, 1248 h, time 52 day, read-out: TGI
MDA-MB-231 [26] = experiment: Antitumour activity against human MDA-MB-231 cells xenografted in Crl:Nu-Foxnl nu mouse assessed as inhibition of tumour growth at total effective dose of 120 mg/kg, iv measured on day 32; assay type: functional; conditions: MDA-MB-231, iv, 768 h, time 32 day, read-out: TGI
BXPC-3 [27] = experiment: Antitumour activity against human BXPC-3 cells xenografted in Crl:Nu-Foxnl nu mouse assessed as inhibition of tumour growth at total effective dose of 160 mg/kg, iv measured on day 36; assay type: functional; conditions: BXPC-3, iv, 864 h, time 36 day, read-out: TGI
BXPC-3 [28] = experiment: Antitumour activity against human BXPC-3 cells xenografted in Crl:Nu-Foxnl nu mouse assessed as inhibition of tumour growth at total effective dose of 160 mg/kg, iv measured on day 32; assay type: functional; conditions: BXPC-3, iv, 768 h, time 32 day, read-out: TGI

| ΔTm (Quadruplex DNA [3]) | ΔTm [4] | ΔTm (Quadruplex DNA [5]) | ΔTm (Quadruplex DNA [19]) | Structure (SMILES) | IC50 (NCI-H460) | IC50 (PANC-1 [2]) | IC50 (DU-145) | IC50 (Capan-2) | IC50 (MIA PaCa-2 [9]) | IC50 (HCT-116) | IC50 (BXPC-3 [11]) | IC50 (ASPC1 [12]) | IC50 (MDA-MB-231 [14]) | further results |
| --- | --- | --- | --- | --- | --- | --- | --- | --- | --- | --- | --- | --- | --- | --- |
| 9.2 °C | 3.8 °C | 28.5 °C | 22.3 °C | O=c1c2cc(O)ccc2n2cnc3ccc(NCCCN4CCN(CCCNc5c6ccccc6nc6cccc([N+](=O)[O-])c56)CC4)c1c32 | 17 nM | 24 nM | 20 nM | 43 nM | 21 nM | 20 nM | 164 nM | 191 nM | 19 nM | inhibition in vivo at 8 mg/kg (MIA PaCa-2 [1]): 51%; inhibition in vivo at 16 mg/kg (MIA PaCa-2 [6]): 29%; inhibition in vivo at 36 mg/kg (PANC-1 [7]): 90%; inhibition in vivo at 30 mg/kg (BXPC-3 [8]): 64%; inhibition in vivo at 42 mg/kg (MIA PaCa-2 [10]): 50%; inhibition in vivo at 16 mg/kg (PANC-1 [13]): 82%; inhibition in vivo at 28 mg/kg (UMUC3 [15]): 47%; inhibition in vivo at 20 mg/kg (PANC-1 [16]): 59%; IC50 (MCF7): 62 nM; IC50 (HT-29): 81 nM; IC50 (UMUC3 [17]): 18 nM; inhibition in vivo at 10 mg/kg (PANC-1 [18]): 71%; IC50 (PC-3): 35 nM; inhibition in vivo at 8 mg/kg (PANC-1 [20]): 51% |
| 33.3 °C | 4.6 °C | 32.8 °C | 28.3 °C | COc1ccc2c(c1)c(=O)c1c(NCCCN3CCN(CCC(N)c4ccc5nc6ccccc6cc5c4[N+](=O)[O-])CC3)ccc3ncn2c31 (stereo not given) |  | 40 nM | 21 nM | 27 nM | 36 nM | 28 nM | 75 nM | 122 nM | 38 nM | inhibition in vivo at 16 mg/kg (PANC-1 [21]): 80%; inhibition in vivo at 40 mg/kg (BXPC-3 [22]): 63%; inhibition in vivo at 48 mg/kg (ASPC1 [23]): 32%; inhibition in vivo at 160 mg/kg (PANC-1 [24]): 64% |
| 26.1 °C | 3.9 °C | 33.2 °C | 26.6 °C | NC(CCN1CCN(CCCNc2ccc3nnn4c5ccccc5c(=O)c2c34)CC1)c1ccc2nc3ccccc3cc2c1[N+](=O)[O-] (stereo not given) |  | 138 nM | 22 nM | 33 nM | 41 nM | 22 nM | 120 nM | 103 nM | 152 nM | inhibition in vivo at 8 mg/kg (PANC-1 [25]): 39% |
| 23.3 °C | 3.4 °C | 21.9 °C | 23.7 °C | Cc1cc(NCCCN(C)CCCNc2ccc3ncn4c5ccccc5c(=O)c2c34)c([N+](=O)[O-])c2cc3ccccc3nc12 | 25 nM | 98 nM | 65 nM |  | 87 nM | 65 nM | 224 nM | 1180 nM |  | inhibition in vivo at 120 mg/kg (MDA-MB-231 [26]): 62%; inhibition in vivo at 160 mg/kg (BXPC-3 [27]): 84%; inhibition in vivo at 160 mg/kg (BXPC-3 [28]): 47% |
